Reference: patent US12083134B2, “Anacardic acid for neural repair” (Vanderbilt University, priority 2018, dated 2024)

Key:
[1] = test system: myelin genes Mbp, Mog and Plp and transcription elements Sp1, Sox10 and Purα in OPCs; experiment: qPCR analysis of myelin gene expression in OPCs treated with AA; format: cell-based, rat; conditions: AA 2.5 μM, 3 hours
Experimental: Mbp=myelin basic protein, Plp=proteolipoprotein, Mog=myelin oligodendrocyte glycoprotein.
(§1) The effect of AA on the expression of myelin genes, MBP, and IL-33 was examined. […] Natarajan et al., PLOS One, 11(3):e0152163 (2016); Sriram et al., Neurology, Abstract presented at the American Academy of Neurology, 2016 (2016). The studies were done in OPCs obtained from rat pups. OPCs were treated with AA (2.5 μM) for 3 hours and message levels were quantified using qPCR analysis. OPCs treated with AA induced the major myelin genes Mbp, Mog and Plp.

[2] = test system: IL-33 expression in OPCs; experiment: q-PCR on the induction of IL-33 in OPCs cultured with AA; format: cell-based, rat; conditions: 3 h, relative to GAPDH, vehicle = 1.00
Experimental: as §1
The expression of IL-33 induced by AA in OPCs was also examined. […] (FIG. 3). The data is expressed as fold change compared to the control protein GAPDH.

[3] = test system: IL-33 protein in OPCs; experiment: Western blot of IL-33 protein in OPCs (nuclear extracts) cultured with AA; format: cell-based, rat; conditions: for increase in the protein level of IL-33: OPCs
Experimental: FIG. 5 (top) provides the results of Western blot studies showing increased expression of IL-33 in the presence of AA in OPCs. […] Because IL-33 is mainly in the nucleus, the Wester blots were done with nuclear extracts and Lamin was used as the control.
In addition, at a dose of 2.5 μM of AA, there was a 1.8 fold increase in the protein level of IL-33, and at a dose of 7.5 μM of AA, there was a 3.1 fold increase in the protein level of IL-33 (FIG. 5).

[4] = test system: cuprizone induced demyelination; experiment: Cuprizone induced model of demyelination, myelin staining of corpus callosum; format: in vivo, mice
Experimental: Mice were administered cuprizone for nine weeks, and starting at week 7, mice were treated with 12.5 mg/kg AA daily for three additional weeks. Mice were sacrificed at the end of week 9. […] The data are expressed as the mean pixel intensity of LFB staining normalized to controls measured at two non-overlapping regions of the corpus callosum.
FIG. 11 provides images showing the staining of myelin using LFB stain (top panel) and immunostaining with anti MBP antibodies (bottom panel) in coronal sections of the brain in a 9-week study of naïve (left), cuprizone treated (middle), and cuprizone+AA treated (12.5 mg/kg/day) mice where the cuprizone+AA treated mice were treated with AA in weeks 7-9 of the study. The Y axis represents the mean pixel intensity of staining normalized to controls for LFB and immunostaining for MBP.
The cuprizone induced model of demyelination is a model for toxic demyelination. Torkildsen et al., Acta Neurol Scand Suppl. 188:72-6 (2008); Bai et al., Exp Neurol, 283(Pt A): 330-40 (2016). Cuprizone induces extensive demyelination in large white matter tracts of the CNS. Because the corpus callosum is the largest white matter tract in the brain, it is often used to study demyelination/remyelination in the cuprizone model. In the cuprizone model, animals are fed with cuprizone that causes cell death of oligodendrocytes. […] Deshmukh et al., Nature, 502(7471):327-32 (2014); Magalon et al., Ann Neurol, 71(2):213-26 (2012). Since the model is non-immune mediated, neuro-reparative therapies which promote remyelination can be tested without the interference of markers of inflammation. Lassmann and Bradl, Acta Neuropathol, 133(2):223-44 (2017).
The efficacy of any potential drug is only apparent for a short period of time after cuprizone withdrawal and before the natural process of remyelination catches up. Following cuprizone withdrawal, there is complete remyelination after 6 weeks. Thus, a study was conducted where mice were administered cuprizone in their chow for nine weeks and either AA or a vehicle were administered with the cuprizone starting at 7 weeks. Previous studies have shown that chow mixed with 0.2% cuprizone causes wide spread demyelination and demyelination is seen in the corpus callosum after 6 to 8 weeks on cuprizone. At the beginning of week 7, mice received 12.5 mg/kg of AA dissolved in DMSO sc daily for an additional three weeks. Control mice received an equal volume of DMSO (vehicle). Equal numbers of mice (5/group) were sacrificed and the amount of myelin was determined by staining with luxol fast blue (“LFB”) (chemical stain for myelin) or by staining with anti MBP antibodies at the end of weeks 7, 8 and 9. […]

`CCCCCCCCCCCCCCCc1cccc(O)c1C(=O)O` [AA, anacardic acid] was tested, and the “expression of major myelin genes Mbp, Mog and Plp (message levels, qPCR)” value [1] was “induced”, the “expression of transcription elements Sp1, Sox10 and Purα that bind the Mbp promoter (qPCR)” value [1] was “upregulation” and the “Fold change of IL-33 expression” value ([2]; AA 2.5 μM) was 8.54 fold. The “Fold change of IL-33 expression” value ([2]; AA 5 μM) was 4.77 fold, the “increase in IL-33 protein expression (image analysis of gels, FIG. 5)” value ([3]; OPCs nuclear extracts, Lamin control, concentration not given) was 1.6 fold and the “increase in the protein level of IL-33” value ([3]; AA 2.5 μM) was 1.8 fold. The “increase in the protein level of IL-33” value ([3]; AA 7.5 μM) was 3.1 fold, the “number of oligodendrocytes vs vehicle treated mice” value ([4]; AA 12.5 mg/kg/day) was “no difference” and the “increase in LFB staining of corpus callosum vs control mice” value ([4]; end of week 9, three weeks of AA 12.5 mg/kg sc daily, P<0.02) was 10%. For the same compound, the “expression of myelin vs control mice” value ([4]; end of weeks 7 and 8, one or two weeks of AA 12.5 mg/kg sc daily) was “no differences” and the “increase in MBP staining (anti MBP antibodies) vs control mice” value ([4]; week 9, AA 12.5 mg/kg/day weeks 7-9, P=0.02) was 17%.
